According to PubChem BioAssay (NCI):
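A five-concentration, 48-hour dose response in 96-well plates underlies each endpoint, interpolated linearly between surrounding concentrations. Abbreviation: GI50, concentration required for 50% inhibition of growth. TGI is the concentration that stops growth completely.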

What was measured:
Experiment in all cases: DTP human tumour cell line panel, 48 h
A549 NSCLC = system: A549 NSCLC
SW-620 colon = system: SW-620 colon
MALME-3M melanoma = system: MALME-3M melanoma
SNB-75 CNS = system: SNB-75 CNS
DU-145 prostate = system: DU-145 prostate
RPMI-8226 leukemia = system: RPMI-8226 leukemia
PC-3 prostate = system: PC-3 prostate
SF-295 CNS = system: SF-295 CNS
HCC-2998 colon = system: HCC-2998 colon
M14 melanoma = system: M14 melanoma
U251 CNS = system: U251 CNS
HCT-15 colon = system: HCT-15 colon
OVCAR-5 ovarian = system: OVCAR-5 ovarian
SN12C renal = system: SN12C renal
SF-539 CNS = system: SF-539 CNS
SK-MEL-2 melanoma = system: SK-MEL-2 melanoma
HS 578T breast = system: HS 578T breast
UO-31 renal = system: UO-31 renal
CCRF-CEM leukemia = system: CCRF-CEM leukemia
HT29 colon = system: HT29 colon
EKVX NSCLC = system: EKVX NSCLC
MDA-MB-231 breast = system: MDA-MB-231 breast
A498 renal = system: A498 renal
KM12 colon = system: KM12 colon
UACC-62 melanoma = system: UACC-62 melanoma
SK-OV-3 ovarian = system: SK-OV-3 ovarian
COLO 205 colon = system: COLO 205 colon
NCI-H522 lung = system: NCI-H522 lung
SF-268 CNS = system: SF-268 CNS

`O=C1NN(C(=O)c2ccccc2)C(c2ccc(Cl)c(Cl)c2)=C/C1=C\c1ccccc1[N+](=O)[O-]` gave a GI50 (A549 NSCLC) of 2110 nM, a TGI (A549 NSCLC) of over 6750 nM and a GI50 (SW-620 colon) of 2270 nM. The TGI (SW-620 colon) was over 6750 nM, the GI50 (MALME-3M melanoma) was 4530 nM and the TGI (MALME-3M melanoma) was over 6750 nM. For the same molecule, the GI50 (SNB-75 CNS) was 1270 nM, the TGI (SNB-75 CNS) was over 6750 nM and the GI50 (DU-145 prostate) was 2780 nM. The TGI (DU-145 prostate) was over 6750 nM, the GI50 (RPMI-8226 leukemia) was 1770 nM and the TGI (RPMI-8226 leukemia) was over 6750 nM. For the same molecule, the GI50 (PC-3 prostate) was 1520 nM, the TGI (PC-3 prostate) was over 6750 nM and the GI50 (SF-295 CNS) was 1440 nM. For the same molecule, the TGI (SF-295 CNS) was 4160 nM, the GI50 (HCC-2998 colon) was 1810 nM and the TGI (HCC-2998 colon) was 5480 nM. The GI50 (M14 melanoma) was 1900 nM, the TGI (M14 melanoma) was over 6750 nM and the GI50 (U251 CNS) was 897 nM. The TGI (U251 CNS) was over 6750 nM, the GI50 (HCT-15 colon) was 923 nM and the TGI (HCT-15 colon) was 2990 nM. For the same molecule, the GI50 (OVCAR-5 ovarian) was 1960 nM, the TGI (OVCAR-5 ovarian) was over 6750 nM and the GI50 (SN12C renal) was 2400 nM. For the same molecule, the TGI (SN12C renal) was over 6750 nM, the GI50 (SF-539 CNS) was 2470 nM and the TGI (SF-539 CNS) was over 6750 nM. It also gave a GI50 (SK-MEL-2 melanoma) of 3110 nM, a TGI (SK-MEL-2 melanoma) of over 6750 nM and a GI50 (HS 578T breast) of 2460 nM. It also gave a TGI (HS 578T breast) of over 6750 nM, a GI50 (UO-31 renal) of 735 nM and a TGI (UO-31 renal) of 6700 nM. For the same molecule, the GI50 (CCRF-CEM leukemia) was 1910 nM, the TGI (CCRF-CEM leukemia) was over 6750 nM and the GI50 (HT29 colon) was 2300 nM. It also gave a TGI (HT29 colon) of over 6750 nM, a GI50 (EKVX NSCLC) of 2810 nM and a TGI (EKVX NSCLC) of over 6750 nM. For the same molecule, the GI50 (MDA-MB-231 breast) was over 6750 nM, the TGI (MDA-MB-231 breast) was over 6750 nM and the GI50 (A498 renal) was 2210 nM. For the same molecule, the TGI (A498 renal) was 6210 nM, the GI50 (KM12 colon) was 2340 nM and the TGI (KM12 colon) was over 6750 nM. The GI50 (UACC-62 melanoma) was 1440 nM, the TGI (UACC-62 melanoma) was over 6750 nM and the GI50 (SK-OV-3 ovarian) was 4000 nM. It also gave a TGI (SK-OV-3 ovarian) of over 6750 nM, a GI50 (COLO 205 colon) of 1520 nM and a TGI (COLO 205 colon) of 3490 nM. The GI50 (NCI-H522 lung) was 1240 nM, the TGI (NCI-H522 lung) was 3770 nM and the GI50 (SF-268 CNS) was 3970 nM. It also gave a TGI (SF-268 CNS) of over 6750 nM.
